Experimental data reported in patent publication US20070078092A1, “Cell permeable conjugates of peptides for inhibition of protein kinases” (priority 2003, published 2007).
Counter-ions that a name gives are not always drawn. Like-named read-outs stand apart in the source and are kept apart here.

Tests used:
[1] = tested on: prostate cancer cell lines; experiment: Growth inhibition assay, combination with chemotherapeutic agents
Method: The chemotherapeutic agents used are: Mitoxantrone hydrochloride (Novantrone, Wyeth Lederle S.p.A. Catania, Italy) supplied as a sterile aqueous solution of 3.8 mM. Doxorubicin, Etoposide and Vinblastine sulfate salt (Sigma) were dissolved in 100% DMSO to prepare stock solutions at concentration of 10 mM. Docetaxel (Taxpter, Aventis) stock solution of 11.6 mM in polysorbate 80. These agents were diluted in medium just before use for in vitro studies.
Cells were incubated for five days in the present of the drugs followed by fixation and staining of cells with methylene blue.

[2] = biological target: T1, PKB (Homo sapiens, UniProt P31749); experiment: PKB in vitro kinase activity assay; type: biochemical
T1 construct: His; HA; made in house
T1 sequence (P31749 whole entry, species assumed): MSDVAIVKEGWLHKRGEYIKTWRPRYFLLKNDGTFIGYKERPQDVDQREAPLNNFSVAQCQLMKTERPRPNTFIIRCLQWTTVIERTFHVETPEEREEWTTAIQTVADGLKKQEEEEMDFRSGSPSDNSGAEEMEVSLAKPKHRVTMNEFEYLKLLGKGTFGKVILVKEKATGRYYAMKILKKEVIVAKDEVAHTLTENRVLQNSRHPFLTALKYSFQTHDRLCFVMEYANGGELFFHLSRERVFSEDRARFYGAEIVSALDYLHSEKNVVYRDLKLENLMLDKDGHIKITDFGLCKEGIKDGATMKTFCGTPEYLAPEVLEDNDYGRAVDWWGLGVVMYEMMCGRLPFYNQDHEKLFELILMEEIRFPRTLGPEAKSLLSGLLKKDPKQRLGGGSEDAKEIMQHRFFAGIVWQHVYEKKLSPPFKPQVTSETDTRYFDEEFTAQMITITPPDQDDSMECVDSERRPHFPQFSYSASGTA

[3] = tested on: PC3 cells; experiment: Growth inhibition assay in PC3 cells; type: cell-based, human; conditions: 50 μM
Description: (§1) Several cancer cell lines were used to determine the activity of PKB inhibitor compounds in intact cells. The human prostate carcinoma cell lines, PC-3 and LNCaP. The human acute T cells leukemia cell line, Jurkat. Human breast carcinoma cell lines: MCF-7 and MDA468 and renal adenocarcinoma cell 786-O. LNCaP,MDA468, 786-O and Jurkat cell lines express high basal level of activated PKB. PC-3 expresses moderate level of activated PKB. MCF-7 expresses low but inducible level of activated PKB. Control cells are PBLs, normal peripheral blood lymphocytes which obtained from normal donors (blood bank) and MCF10F which is a non tumorogenic breast cell line. […]
(§2) Cells were fixed by 0.5% glutardialdehyde followed by staining with 1% methylene blue in borate buffer (Sigma) for one hour. […] Quantitation of color intensity was performed by measurement of the optical density at 600 nm by ELISA reader. […]
(§3) At the appropriate time in culture 1uci of 3H-thymidine (stock of 5 Ci/mmole, Amersham) was added to each well containing 100 μl of medium for 5 hours. […] The radioactivity was counted using microplate counter, Packard TopCount.
(§4) Fifty percent inhibitory concentration (IC50) values were calculated using nonlinear regression in one site competition model with GraphPad Prism version 3.03 Windows (GraphPad Software, San Diego, USA)

[4] = tested on: LNCaP cells; experiment: Growth inhibition assay in LNCaP cells; type: cell-based, human; conditions: Table 3, assay B2
Description: as §1, §2, §3, §4

[5] = tested on: prostate cancer cell lines; experiment: Cell death and apoptosis in prostate cancer cell lines; type: cell-based, human
Description: (§5) Several cancer cell lines were used to determine the activity of PKB inhibitor compounds in intact cells. The human prostate carcinoma cell lines, PC-3 and LNCaP. The human acute T cells leukemia cell line, Jurkat. Human breast carcinoma cell lines: MCF-7 and MDA468 and renal adenocarcinoma cell 786-O. LNCaP,MDA468, 786-O and Jurkat cell lines express high basal level of activated PKB. PC-3 expresses moderate level of activated PKB. MCF-7 expresses low but inducible level of activated PKB. Control cells are PBLs, normal peripheral blood lymphocytes which obtained from normal donors (blood bank) and MCF10F which is a non tumorogenic breast cell line. The control cells are used to compare the effect of the protein kinase inhibitors on the tested cancer cells and the normal cells.
Peptide conjugates, which are active in enzyme inhibition assays were tested in cells for induction of apoptosis of cancer cell lines. Apoptosis was assayed at least by two methods in each cell line. Cells were seeded at the appropriate plates for each method, treated with or without the inhibitory compounds for different time points and analyzed by one of the below methods.
Table 9 represents the cell death induced by the protein kinase inhibitors in prostate cancer cell lines vs. normal cells. […]

[6] = tested on: PKB downstream substrates GSK3 and FKHR; experiment: Inhibition of phosphorylation of PKB downstream substrates (Western blot); type: cell-based, human; conditions: cancer cells
Method: B3. Inhibition of Phosphorylation of PKB and Downstream Substrates:
Peptide conjugates identified as inhibitors of PKB were further tested in cells for their ability to inhibit the phosphorylation of several PBK downstream substrates. The substrate GSK3 is associated with cell metabolism and cell cycle. Forkhead (FKHR) is directly associated with apoptosis. Inhibitory activity in these assays indicates also that the positive compounds penetrate into the cells.
Cells (2×10^6) were seeded in 25 cm^2 flasks grown for 2 days at normal medium conditions. Inhibitory compounds were added for 24 hrs and analyzed for their effect on PKB phosphorylation at Ser473 residue and on the phosphorylation of specific substrates of PKB, GSK3 and FKHR. At the end of the treatment cells were lysed using lysis buffer (20 mM Tris-HCl pH 7.4, 150 mM NaCl, 0.5% Triton-x100, 25 mM NaF, 2 mM AEBSF, 1 mM sodium orthovanadate, 10 mM β-glycerophosphate, 1 μg/ml aprotonin and 5 μg/ml leupeptin). Equal amounts of cell protein were resolved by 10% SDS-PAGE and electroblotted to PVDF membranes. Western blot analysis was performed using antibodies against phospho-Akt1 (Ser473), phospho-GSK3α (Ser21) and phosphor-FKHR (Thr24), which were obtained from Cell Signaling Technology and against Akt1 (Upstate), GSK3α (Transduction Laboratories), and FKHR (Cell Signaling Technology).

[7] = tested on: Prostate cancer PC3 and LNCaP, T-cell leukemia Jurkat, and breast cancer MCF-7; experiment: Cellular activity in the relevant cancer cell lines; type: cell-based, human
Description: as §5
Selected peptide conjugates, which were found active in the enzyme-inhibition assays were screened for their ability to inhibit growth of tumor cell lines. Screening for inhibitory compounds was done, initially, at concentration of 50 μM. Active compounds from the first screening were further tested at different concentrations (50, 25, 12.5, 6.25, 3.125 and 1.56 μM) in order to determine their IC50. Growth inhibition was tested using two methods: A. staining of viable cells with methylene blue, B. incorporation of ^3H-thymidine. For both methods cells were grown in 96-well plates: LNCaP, 5000 cell per well for 72 hours, PC3, 5000 cells per well for 48 hours Jurkat, MDA468, and 786-O, 2500, 5000 and 1000 cells per well respectively for 24 hours, before tested compounds were added. The assays were done in triplicates for one to six days.
In addition, some of the new conjugates were also 10-20 times selective for PKB over PKA in contrast to previously described chimeric compounds. • 1. […] From the peptide transporter conjugates, 96 compounds were tested all were very active in the in-vitro kinase assay and very selective 10-50 fold, however only few were active in cells. The selected 6 active conjugates show 8-20 μM activity in cells.

[8] = tested on: PC3 tumor xenograft; experiment: Efficacy study in mice bearing PC3 tumor, systemic administration; type: in vivo
Method: b. Human prostatic PC-3 cancer cells are grafted subcutaneously in 5 weeks old male nude Balb/c mice of approximately 20 g. Each mouse will receive 2.5×10^6cells at Day 0. Intraperitoneal (i.p.) treatment is initiated when tumour volume reaches approximately 50 mm^3. I.p. administration is highly acceptable in preliminary experiments, and exemplifies the stability in the blood and liver, and the distribution through the blood into the tumor. The control groups is treated with the vehicle 10% DMSO -90% 2-hydroxypropyl-beta-cyclodextrin at 1×10^−2M in sterile saline. Tumour volume measurements with callipers (equation=length×width^2×0.4) and body weights are recorded 3 times weekly on Mondays, Wednesdays and Fridays. Mice are monitored twice daily for general health status. Mice are sacrificed when the tumour mass in the respective vehicle treated groups reaches approximately 20% of the body weight or if this should not be obtained, 3 weeks after the end of the treatment. At the end of the experiment, the tumours of the 3 first sacrificed mice in each group are collected and embedded in paraffin blocks for further histological examination. The remaining tumours are collected and frozen in liquid nitrogen for western blot analysis.
Although the peptide dose was 3.3 mg/kg the MTD for this compound is 40 times higher, indicating a high therapeutic index. • b. Two concentrations were tested, 66 mg/kg and 33 mg/kg, which are 0.5 and 0.25 of the MTD. The relatively high doses were selected because we had no previous knowledge on the pharmacokinetics of the compound, and we wanted to obtain maximum effect, although we expected that toxic effects might occur as a result of the high dosing.
The compounds were dissolved in a solution of 10% DMSO/90% cyclodextrin in physiological saline. Six groups of 9 mice in each were tested. Two groups received the compound i.v, every 48 hours, and two groups received it daily, by i.p. injection. Treatment started at 7 days post graft, lasted for 21 days, followed by a 14-day observation period. The experiment consisted four experimental groups as in table 7:
It is clear that the effect of the inhibitors was very significant, despite the aggressiveness of the tumors.
Three tumors from each group were studies and a clear trend of increased apoptosis is observed in the treated tumors, implying induction of apoptosis through inhibition of PKB. Tumors were collected after the 14 days observation period in which no treatment was given, indicating long-term effect. The ratio between apoptosis to mitoses in tumor sections express the viability of the tumor. In a viable tissue mitotic process are dominant and apoptosis is minor while in dying tissue this ratio is reversed. […]

[9] = tested on: PC3 tumor xenograft; experiment: Efficacy study in mice bearing PC3 tumor, IT injection; type: in vivo; conditions: high dose (3.3 mg/kg), every other day, second week, FIG. 8
Method: C2. Efficacy Study in Mice Bearing PC3 Tumor
a. PC3 cells ([…]) were injected subcutaneously in matrigel, into hip area of Nude male mice (Harlan Co., Israel). Tumor size was determined by caliper using the formula: Length ×(width^2)×0.4. The tumors were allowed to grow to volume of about 50 mm 3 before the treatment was started. The appropriate doses of compounds were injected subcutaneously into the region surrounding the tumors (IT injection). The treatment was given 3 times a week; every other day for two weeks, and the tumor size was measured once every two days.
The high safety of PTR 6164 allows a very large therapeutic window. The conjugates were further tested in vivo in efficacy studies as described in C2 above: • a. The peptides were injected every other day, at the tumor area. After 3 injections, an indicative tendency of reduction in tumor size was observed.

[10] = 120 h, read-out: IC50 of chemotherapeutic agent alone
[11] = read-out: IC50 of chemotherapeutic agent +PTR 6320, combined with 1.5 μM of PTR 6320, five days, methylene blue
[12] = i.p. 33 mg/kg, tumors collected after the 14 days observation period

CC(=O)O[C@@]12CO[C@@H]1C[C@H](O)[C@@]1(C)C(=O)[C@H](O)C3=C(C)[C@@H](OC(=O)[C@H](O)[C@@H](NC(=O)OC(C)(C)C)c4ccccc4)C[C@@](O)([C@@H](OC(=O)c4ccccc4)[C@H]21)C3(C)C [Docetaxel]
IC50 [1, 10]: 0.6 nM | IC50 [1, 11]: 0.03 nM

COc1cccc2c1C(=O)c1c(O)c3c(c(O)c1C2=O)C[C@@](O)(C(=O)CO)C[C@@H]3O[C@H]1C[C@H](N)[C@H](O)[C@H](C)O1 [Doxorubicine, Doxorubicin]
IC50 [1, 10]: 13 nM | IC50 [1, 11]: 1.1 nM

COc1cc([C@@H]2c3cc4c(cc3[C@@H](O[C@@H]3O[C@@H]5CO[C@@H](C)O[C@H]5[C@H](O)[C@H]3O)[C@H]3COC(=O)[C@H]23)OCO4)cc(OC)c1O [Etoposide]
IC50 [1, 10]: 300 nM | IC50 [1, 11]: 17 nM

O=C1c2c(O)ccc(O)c2C(=O)c2c(NCCNCCO)ccc(NCCNCCO)c21 [Mitoxantrone, Mitoxantrone hydrochloride]
IC50 [1, 10]: 3.4 nM | IC50 [1, 11]: ~0.36 nM

CC[C@]1(O)C[C@@H]2CN(CCc3c([nH]c4ccccc34)[C@@](C(=O)OC)(c3cc4c(cc3OC)N(C)[C@H]3[C@@](O)(C(=O)OC)[C@H](OC(C)=O)[C@]5(CC)C=CCN6CC[C@]43[C@@H]65)C2)C1 [Vinblastine]
IC50 [1, 10]: 2.2 nM | IC50 [1, 11]: 0.1 nM

Ahx6-DArg-DArg-DArg-DArg-DGln-DArg-DArg-DLys-DLys-DArg-6154 [Peptide AB60025-54]
% Inhibition PKB activity ([2]; 1 μM): 95% | % Inhibition PKB activity ([2]; 10 μM): 97%

Arg-Gln-Ile-Lys-Ile-Trp-Phe-Gln-Asn-Arg-Arg-Met-Lys-Trp-Lys-Lys-6154 [Peptide AB60025-2]
% Inhibition PKB activity ([2]; 1 μM): 60% | % Inhibition PKB activity ([2]; 10 μM): 92% | % Inhibition PC3 growth [3]: 60% | IC50 [4]: < 12500 nM

Arg-Gln-Ile-Lys-Ile-Trp-Phe-Gln-Asn-Arg-Arg-Met-Lys-Trp-Lys-Lys-6184 [Peptide AB60025-4]
% Inhibition PKB activity ([2]; 1 μM): 80% | % Inhibition PKB activity ([2]; 10 μM): 96% | % Inhibition PC3 growth [3]: 52% | IC50 [4]: 10000 nM

Cholesteryl-O—CO-(DLys)3-Arg-Pro-Arg-Nva-Tyr-Dap-Hol-NH2 [PTR 6320]
improved in vitro selectivity in comparison to PTR 6164 ([2]; protein kinase B vs. protein kinase A, FIG. 11): about 20 times | concentration inducing apoptosis in cancer cells ([5]; cancer cells): 3 µM | efficacy / potency in cellular assays relative to PTR 6164 ([5]; compared with prototype PTR 6164): five times better efficacy

Cholesteryl-O—CO-Arg-Pro-Arg-Nva-Tyr-Dap-Hol-NH2 [PTR 6164]
phosphorylation of GSK3 and FKHR [6]: decreases the phosphorylation of GSK3 and FKHR | cellular activity [7]: 12 µM | effect on tumor growth ([8]; daily i.p. injections, 66 mg/kg and 33 mg/kg, 21 days): significant inhibition of tumor growth | Apoptosis in tumor sections [8, 12]: 5.6 | Mitoses in tumor sections [8, 12]: 3.4 | effect on tumor size ([8]; injections every 48 hours (i.v.), 66 mg/kg and 33 mg/kg): no effect on the tumor size | tumor regression after injection at the tumor area [9]: four out of five animals showed complete regression of the tumor

Myristyl-Gly-Arg-Pro-Arg-Nva-Tyr-Dap-Hol-NH2 [PTR 6180]
cellular activity [7]: 25 to 50 µM

Vitamin E succinate-Arg-Pro-Arg-Nva-Tyr-Dap-Hol-NH2 [PTR 6244]
cellular activity [7]: 15 to 20 µM
